Test results as given in patent publication US20240132521A1, “COMPOUNDS AND METHODS FOR MODULATING HER2” (Iambic Therapeutics, Inc., priority 2022, published 2024).

Assays:
wtEGFR = molecular target: T1, wtEGFR (Homo sapiens, UniProt P00533); assay: HotSpot radiometric kinase activity assay, wtEGFR; details: biochemical activity, 4 nM wtEGFR, 10 μM 33P-ATP, 2 hours, read-out: EGFR WT IC50
T1 construct: purchased Invitrogen PR7295B
Method: (§1) The purpose of the wtERBB2, ERBB2-A775_G776insYVMA (ERBB2YVMA), wtEGFR biochemical assay was to evaluate the inhibition (% inhibition and IC50 values) of the small molecule inhibitors by using the “HotSpot” radiometric kinase activity assay. HotSpot assays monitor the production of kinase substrate by the radioactive gamma phosphate of adenosine triphosphate (33P-ATP) during biochemical reactions. HotSpot assays was performed in steps upon completion of the kinase reaction: deposition of a reaction mixture aliquot onto P81 ion exchange paper, extensive washing of the aforementioned P81 paper using phosphoric acid to remove unbound radiolabeled 33P-ATP from the P81 paper, and finally visualization and quantification of the dried P81 paper utilizing a phosphoimager. […] Typical reaction solutions (10 μL, final reaction volume) contained the following buffer conditions: 20 mM Hepes (pH 7.5), 10 mM MgCl2, 1 mM EGTA, 0.01% Brij35, 0.02 mg/mL BSA, 0.1 mM Na3VO4, 2 mM DTT, 1% DMSO. The assay was primed by preparing a fresh 0.2 mg/mL solution of pEY (Sigma Cat: P7244) substrate in the reaction buffer and supplementing that solution with […] of MnCl2 as substrate cofactor (Sigma Cat: M9522). The kinase of interest was then added to the solution at the appropriate concentration (30 nM wtERBB2 from, or 20 nM ERBB2YVMA, or 4 nM wtEGFR) and gently mixed prior to delivery of compound in 100% DMSO by acoustic dispensing (Beckman Echo550). Compound, Kinase, and substrate were allowed to incubate for 20 min at room temperature prior to the initiation of the reaction by addition of 33P-ATP (PerkinElmer Cat: NEG602, final conc 10 μM). […] IC50 determinations were made from a plot of kinase activity as a function of inhibitor concentration fit to the 4-parameter IC50 equation with the enzyme concentration held constant using GraphPad Prism (San Diego).

BaF3_HER2WT cells = BaF3_HER2WT cells (Homo sapiens, UniProt P04626); assay: Cell growth inhibition assay (CellTiterGlo), BaF3_HER2WT; assay type: cell-based; details: 3-day treatment, CellTiterGlo, read-out: Cell growth inhibition activity, HER2 WT
BaF3_EGFRWT cells = BaF3_EGFRWT cells (Homo sapiens, UniProt P00533); assay: Cell growth inhibition assay (CellTiterGlo), BaF3_EGFRWT; assay type: cell-based; details: 3-day treatment, CellTiterGlo, read-out: Cell growth inhibition activity, EGFR WT
[1] = molecular target: T2, ERBB2-A775_G776insYVMA (ERBB2YVMA) (Homo sapiens, UniProt P04626, INS775YVMA); assay: HotSpot radiometric kinase activity assay, ERBB2YVMA; details: biochemical activity, 20 nM ERBB2YVMA, 10 μM 33P-ATP, 2 hours, read-out: HER2 - YVMA IC50
T2 construct: purchased SignalChem E27-13BG
Method: as §1

BaF3_HER2YVMA cells = BaF3_HER2YVMA cells (Homo sapiens, UniProt P04626, DUP772-775, cells depend on it); assay: Cell growth inhibition assay (CellTiterGlo), BaF3_HER2YVMA; assay type: cell-based; details: 3-day treatment, CellTiterGlo, read-out: Cell growth inhibition activity, HER2 - YVMA
Sequence of BaF3_HER2YVMA cells (P04626 with tags, fused parts or gaps DUP772-775): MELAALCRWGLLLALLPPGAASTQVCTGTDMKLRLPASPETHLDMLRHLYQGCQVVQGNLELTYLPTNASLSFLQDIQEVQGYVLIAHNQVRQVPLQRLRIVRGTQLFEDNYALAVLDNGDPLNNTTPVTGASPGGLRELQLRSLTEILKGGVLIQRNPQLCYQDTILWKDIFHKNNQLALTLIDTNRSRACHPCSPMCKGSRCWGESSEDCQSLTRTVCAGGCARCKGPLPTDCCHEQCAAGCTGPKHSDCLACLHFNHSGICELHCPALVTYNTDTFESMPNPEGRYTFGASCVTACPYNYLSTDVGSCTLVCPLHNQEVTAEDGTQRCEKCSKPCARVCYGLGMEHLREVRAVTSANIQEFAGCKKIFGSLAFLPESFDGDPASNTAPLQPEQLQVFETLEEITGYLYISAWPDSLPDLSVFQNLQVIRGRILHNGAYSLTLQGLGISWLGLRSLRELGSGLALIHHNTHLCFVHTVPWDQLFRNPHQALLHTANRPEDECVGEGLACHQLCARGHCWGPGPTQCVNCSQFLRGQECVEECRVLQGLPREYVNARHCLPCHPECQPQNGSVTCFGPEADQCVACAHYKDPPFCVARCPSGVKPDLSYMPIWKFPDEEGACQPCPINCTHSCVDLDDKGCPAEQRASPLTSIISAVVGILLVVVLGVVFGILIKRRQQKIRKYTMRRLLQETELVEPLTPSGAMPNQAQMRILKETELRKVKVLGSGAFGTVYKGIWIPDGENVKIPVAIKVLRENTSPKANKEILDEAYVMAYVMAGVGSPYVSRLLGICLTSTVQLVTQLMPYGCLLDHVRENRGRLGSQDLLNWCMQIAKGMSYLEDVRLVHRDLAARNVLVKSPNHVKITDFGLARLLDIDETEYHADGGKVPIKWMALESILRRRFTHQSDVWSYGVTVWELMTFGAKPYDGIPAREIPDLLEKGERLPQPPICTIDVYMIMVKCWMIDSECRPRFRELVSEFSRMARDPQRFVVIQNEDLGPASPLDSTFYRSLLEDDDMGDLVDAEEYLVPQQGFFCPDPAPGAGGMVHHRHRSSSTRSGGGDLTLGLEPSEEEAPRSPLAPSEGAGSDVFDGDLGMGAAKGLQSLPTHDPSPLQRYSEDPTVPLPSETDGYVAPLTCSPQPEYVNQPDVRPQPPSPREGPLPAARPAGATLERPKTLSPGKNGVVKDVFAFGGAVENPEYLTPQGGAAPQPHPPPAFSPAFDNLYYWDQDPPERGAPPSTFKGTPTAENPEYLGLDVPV

Sequence of BaF3_HER2WT cells (P04626 whole entry, change not shown): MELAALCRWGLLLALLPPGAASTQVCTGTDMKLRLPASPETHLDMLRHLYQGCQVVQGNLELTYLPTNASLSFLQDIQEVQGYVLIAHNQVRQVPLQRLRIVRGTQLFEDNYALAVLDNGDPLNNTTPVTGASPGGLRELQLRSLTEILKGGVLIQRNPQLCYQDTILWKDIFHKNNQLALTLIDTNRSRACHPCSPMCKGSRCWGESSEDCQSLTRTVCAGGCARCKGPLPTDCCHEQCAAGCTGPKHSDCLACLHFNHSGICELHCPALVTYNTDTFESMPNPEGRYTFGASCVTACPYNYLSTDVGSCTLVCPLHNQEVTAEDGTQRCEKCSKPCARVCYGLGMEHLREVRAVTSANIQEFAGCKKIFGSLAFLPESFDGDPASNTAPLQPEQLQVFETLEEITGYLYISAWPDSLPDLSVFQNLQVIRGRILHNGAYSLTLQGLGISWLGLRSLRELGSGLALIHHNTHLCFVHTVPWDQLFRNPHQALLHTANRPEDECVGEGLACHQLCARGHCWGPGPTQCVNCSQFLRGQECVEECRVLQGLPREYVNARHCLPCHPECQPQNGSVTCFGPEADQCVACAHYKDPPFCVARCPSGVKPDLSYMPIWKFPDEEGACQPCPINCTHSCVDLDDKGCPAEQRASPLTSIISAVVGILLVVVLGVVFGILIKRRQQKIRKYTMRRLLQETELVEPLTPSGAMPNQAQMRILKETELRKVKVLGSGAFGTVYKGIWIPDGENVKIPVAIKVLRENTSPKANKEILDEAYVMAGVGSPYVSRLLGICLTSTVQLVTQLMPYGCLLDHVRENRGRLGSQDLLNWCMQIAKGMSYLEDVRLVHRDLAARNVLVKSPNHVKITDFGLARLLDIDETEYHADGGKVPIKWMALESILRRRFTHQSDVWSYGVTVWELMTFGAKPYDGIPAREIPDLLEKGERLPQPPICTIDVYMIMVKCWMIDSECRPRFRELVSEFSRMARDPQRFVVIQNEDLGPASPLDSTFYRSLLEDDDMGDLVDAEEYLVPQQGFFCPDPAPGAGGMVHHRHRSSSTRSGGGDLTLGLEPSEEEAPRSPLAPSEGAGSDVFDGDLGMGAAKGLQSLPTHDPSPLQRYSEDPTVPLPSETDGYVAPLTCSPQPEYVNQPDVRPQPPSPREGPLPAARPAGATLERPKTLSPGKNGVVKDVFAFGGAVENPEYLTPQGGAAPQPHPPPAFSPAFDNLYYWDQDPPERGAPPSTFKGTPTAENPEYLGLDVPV
T1 sequence (P00533 25-1210): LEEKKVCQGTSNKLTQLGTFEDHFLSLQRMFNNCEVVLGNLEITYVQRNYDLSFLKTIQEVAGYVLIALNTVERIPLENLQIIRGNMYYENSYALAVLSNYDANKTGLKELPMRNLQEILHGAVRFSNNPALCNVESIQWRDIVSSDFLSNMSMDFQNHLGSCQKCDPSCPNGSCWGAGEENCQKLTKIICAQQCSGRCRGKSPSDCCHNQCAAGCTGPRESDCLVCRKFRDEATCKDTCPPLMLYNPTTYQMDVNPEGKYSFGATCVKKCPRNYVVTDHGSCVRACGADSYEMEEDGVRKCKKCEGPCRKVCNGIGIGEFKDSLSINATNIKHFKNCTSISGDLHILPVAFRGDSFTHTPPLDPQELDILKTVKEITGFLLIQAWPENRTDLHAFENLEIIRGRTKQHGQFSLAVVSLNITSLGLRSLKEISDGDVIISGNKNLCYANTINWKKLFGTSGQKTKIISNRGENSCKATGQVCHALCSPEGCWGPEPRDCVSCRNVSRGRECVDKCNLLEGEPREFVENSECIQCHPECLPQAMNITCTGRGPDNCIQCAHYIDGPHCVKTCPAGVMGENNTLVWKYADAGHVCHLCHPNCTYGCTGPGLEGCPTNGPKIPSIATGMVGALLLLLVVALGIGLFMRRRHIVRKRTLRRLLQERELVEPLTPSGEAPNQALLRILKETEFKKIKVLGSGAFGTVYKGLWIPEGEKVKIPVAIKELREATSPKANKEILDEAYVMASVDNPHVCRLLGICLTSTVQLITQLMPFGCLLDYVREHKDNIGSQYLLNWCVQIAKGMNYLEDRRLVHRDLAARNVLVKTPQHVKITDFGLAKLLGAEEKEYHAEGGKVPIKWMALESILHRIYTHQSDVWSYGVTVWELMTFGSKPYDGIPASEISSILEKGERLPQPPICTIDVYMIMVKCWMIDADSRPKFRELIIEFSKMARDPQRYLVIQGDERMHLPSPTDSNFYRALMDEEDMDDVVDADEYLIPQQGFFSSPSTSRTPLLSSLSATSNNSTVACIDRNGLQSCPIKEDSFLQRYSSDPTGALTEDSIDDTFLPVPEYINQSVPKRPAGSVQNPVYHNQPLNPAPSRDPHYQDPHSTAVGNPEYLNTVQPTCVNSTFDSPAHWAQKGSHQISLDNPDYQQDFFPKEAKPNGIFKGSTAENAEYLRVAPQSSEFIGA
Sequence of BaF3_EGFRWT cells (P00533 whole entry, stated change not applied): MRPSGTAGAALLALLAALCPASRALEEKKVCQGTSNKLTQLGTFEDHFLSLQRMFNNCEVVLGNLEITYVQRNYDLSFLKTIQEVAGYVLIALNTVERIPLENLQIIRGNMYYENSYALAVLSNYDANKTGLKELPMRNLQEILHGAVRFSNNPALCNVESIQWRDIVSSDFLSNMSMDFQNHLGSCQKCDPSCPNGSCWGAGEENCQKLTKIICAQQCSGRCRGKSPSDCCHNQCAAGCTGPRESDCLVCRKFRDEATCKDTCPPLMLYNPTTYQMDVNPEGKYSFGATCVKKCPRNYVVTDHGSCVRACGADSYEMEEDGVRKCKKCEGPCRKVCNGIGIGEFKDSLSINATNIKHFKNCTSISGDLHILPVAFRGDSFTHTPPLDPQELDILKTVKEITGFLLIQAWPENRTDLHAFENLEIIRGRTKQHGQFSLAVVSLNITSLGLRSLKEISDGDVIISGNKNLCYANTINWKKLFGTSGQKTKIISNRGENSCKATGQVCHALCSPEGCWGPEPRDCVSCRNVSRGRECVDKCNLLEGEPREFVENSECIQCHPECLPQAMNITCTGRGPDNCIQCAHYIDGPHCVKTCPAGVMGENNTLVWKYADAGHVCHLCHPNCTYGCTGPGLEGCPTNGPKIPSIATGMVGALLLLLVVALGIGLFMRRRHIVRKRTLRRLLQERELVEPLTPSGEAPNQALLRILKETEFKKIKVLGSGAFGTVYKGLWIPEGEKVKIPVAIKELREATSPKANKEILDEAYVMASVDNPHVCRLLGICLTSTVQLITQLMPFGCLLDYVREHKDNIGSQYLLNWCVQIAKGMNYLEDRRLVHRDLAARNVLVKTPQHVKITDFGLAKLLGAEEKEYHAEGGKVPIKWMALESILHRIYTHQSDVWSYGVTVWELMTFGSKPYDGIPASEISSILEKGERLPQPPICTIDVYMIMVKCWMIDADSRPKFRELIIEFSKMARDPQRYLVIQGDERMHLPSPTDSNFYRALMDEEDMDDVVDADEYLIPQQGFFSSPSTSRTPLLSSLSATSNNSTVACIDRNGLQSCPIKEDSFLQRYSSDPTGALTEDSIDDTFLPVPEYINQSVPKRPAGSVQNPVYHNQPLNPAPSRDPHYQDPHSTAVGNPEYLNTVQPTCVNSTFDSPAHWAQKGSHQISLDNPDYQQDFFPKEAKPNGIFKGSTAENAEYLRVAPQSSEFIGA

| Compound | IC50 (wtEGFR) [nM] | GI50 (BaF3_HER2WT cells) [nM] | GI50 (BaF3_EGFRWT cells) [µM] | IC50 [1] [nM] | GI50 (BaF3_HER2YVMA cells) [nM] |
| --- | --- | --- | --- | --- | --- |
| Cc1cc(Nc2ncnn3ccc(C4CCN(C(=O)/C=C/CN(C)C)C4)c23)ccc1Oc1ccn2ncnc2c1 (single isomer, unassigned) [Example 100] | 1500 to 5000 | – | – | – | – |
| Cc1cc(Nc2ncnn3ccc(C4CCCN(C(=O)/C=C/CN(C)C)C4)c23)ccc1Oc1ccn2ncnc2c1 (single isomer, unassigned) [Example 107] | 500 to 1500 | – | – | – | – |
| Cc1cc(Nc2ncnn3ccc(C4CCCN(C(=O)/C=C/CN(C)C)C4)c23)ccc1Oc1ccn2ncnc2c1 (single isomer, unassigned) [Example 108] | 1500 to 5000 | – | – | – | – |
| Cc1cc(Nc2ncnn3ccc(C4CCCN(C(=O)/C=C/CN(C)C)CC4)c23)ccc1Oc1ccn2ncnc2c1 (single isomer, unassigned) [Example 110] | 200 to 500 | – | – | – | – |
| C=CC(=O)NC1CCN(C(=O)c2ccn3ncnc(Nc4ccc(Oc5ccn6ncnc6c5)c(C)c4)c23)CC1 [Example 5, N-(1-(4-((4-([1,2,4]triazolo[1,5-a]pyridin-7-yloxy)-3-methylphenyl)amino)pyrrolo[2,1-f][1,2,4]triazine-5-carbonyl)piperidin-4-yl)acrylamide] | 1500 to 5000 | < 200 | 1.5 to 5 | 200 to 500 | 200 to 500 |
| C=CC(=O)N1CCC(c2ccn3ncnc(Nc4ccc(Oc5ccn6ncnc6c5)c(C)c4)c23)C1 (stereo not shown) [Example 11, 1-(3-(4-((4-([1,2,4]triazolo[1,5-a]pyridin-7-yloxy)-3-methylphenyl)amino)pyrrolo[2,1-f][1,2,4]triazin-5-yl)pyrrolidin-1-yl)prop-2-en-1-one] | 500 to 1500 | < 200 | 1.5 to 5 | < 200 | < 200 |
| C=CC(=O)NCCn1cc(-c2ccn3ncnc(Nc4ccc(Oc5ccn6ncnc6c5)c(C)c4)c23)cn1 [Example 13, N-(2-(4-(4-((4-([1,2,4]triazolo[1,5-a]pyridin-7-yloxy)-3-methylphenyl)amino)pyrrolo[2,1-f][1,2,4]triazin-5-yl)-1H-pyrazol-1-yl)ethyl)acrylamide] | 1500 to 5000 | < 200 | 1.5 to 5 | < 200 | 200 to 500 |
| C=CC(=O)NC1CN(c2ccn3ncnc(Nc4ccc(Oc5ccn6ncnc6c5)c(C)c4)c23)C1 [Example 14, N-(1-(4-((4-([1,2,4]triazolo[1,5-a]pyridin-7-yloxy)-3-methylphenyl)amino)pyrrolo[2,1-f][1,2,4]triazin-5-yl)azetidin-3-yl)acrylamide] | 200 to 500 | < 200 | 1.5 to 5 | < 200 | < 200 |
| C=CC(=O)N1CC2(C1)CN(c1ccn3ncnc(Nc4ccc(Oc5ccn6ncnc6c5)c(C)c4)c13)C2 [Example 16, 1-(6-(4-((4-([1,2,4]triazolo[1,5-a]pyridin-7-yloxy)-3-methylphenyl)amino)pyrrolo[2,1-f][1,2,4]triazin-5-yl)-2,6-diazaspiro[3.3]heptan-2-yl)prop-2-en-1-one] | 1500 to 5000 | 200 to 500 | 1.5 to 5 | < 200 | 500 to 1500 |
| C=C(F)C(=O)NC1CN(c2ccn3ncnc(Nc4ccc(Oc5ccn6ncnc6c5)c(C)c4)c23)C1 [Example 18, N-(1-(4-((4-([1,2,4]triazolo[1,5-a]pyridin-7-yloxy)-3-methylphenyl)amino)pyrrolo[2,1-f][1,2,4]triazin-5-yl)azetidin-3-yl)-2-fluoroacrylamide] | 1500 to 5000 | 200 to 500 | 1.5 to 5 | < 200 | 500 to 1500 |
| C=C(F)C(=O)N1CC(n2cc(-c3ccn4ncnc(Nc5ccc(Oc6ccn7ncnc7c6)c(C)c5)c34)cn2)C1 [Example 19, 1-(3-(4-(4-((4-([1,2,4]triazolo[1,5-a]pyridin-7-yloxy)-3-methylphenyl)amino)pyrrolo[2,1-f][1,2,4]triazin-5-yl)-1H-pyrazol-1-yl)azetidin-1-yl)-2-fluoroprop-2-en-1-one] | 1500 to 5000 | 200 to 500 | 1.5 to 5 | 200 to 500 | 500 to 1500 |
| Cc1cc(Nc2ncnn3ccc(N4CCN(C(=O)/C=C/CN(C)C)CC4)c23)ccc1Oc1ccn2ncnc2c1 [Example 22, (E)-1-(4-(4-((4-([1,2,4]triazolo[1,5-a]pyridin-7-yloxy)-3-methylphenyl)amino)pyrrolo[2,1-f][1,2,4]triazin-5-yl)piperazin-1-yl)-4-(dimethylamino)but-2-en-1-one] | 500 to 1500 | < 200 | 1.5 to 5 | < 200 | < 200 |
| Cc1cc(Nc2ncnn3ccc(C4CCN(C(=O)CCCN(C)C)CC4)c23)ccc1Oc1ccn2ncnc2c1 [Example 23, 1-(4-(4-((4-([1,2,4]triazolo[1,5-a]pyridin-7-yloxy)-3-methylphenyl)amino)pyrrolo[2,1-f][1,2,4]triazin-5-yl)piperidin-1-yl)-4-(dimethylamino)butan-1-one] | 500 to 1500 | 500 to 1500 | 1.5 to 5 | < 200 | 1500 to 5000 |
| Cc1cc(Nc2ncnn3ccc(C4CN(C(=O)/C=C/CN)C4)c23)ccc1Oc1ccn2ncnc2c1 [Example 87, (E)-1-(3-(4-((4-([1,2,4]triazolo[1,5-a]pyridin-7-yloxy)-3-methylphenyl)amino)pyrrolo[2,1-f][1,2,4]triazin-5-yl)azetidin-1-yl)-4-aminobut-2-en-1-one] | 200 to 500 | 1500 to 5000 | 1.5 to 5 | < 200 | 1500 to 5000 |
| Cc1cc(Nc2ncnn3ccc(C4CN(C(=O)/C=C/CN5CC(F)(F)C5)C4)c23)ccc1Oc1ccn2ncnc2c1 [Example 91, (E)-1-(3-(4-((4-([1,2,4]triazolo[1,5-a]pyridin-7-yloxy)-3-methylphenyl)amino)pyrrolo[2,1-f][1,2,4]-triazin-5-yl)azetidin-1-yl)-4-(3,3-difluoroazetidin-1-yl)but-2-en-1-one] | 500 to 1500 | < 200 | 1.5 to 5 | < 200 | 500 to 1500 |
| Cc1cc(Nc2ncnn3ccc(C4CCCN(C(=O)/C=C/CN(C)C)CC4)c23)ccc1Oc1ccn2ncnc2c1 (stereo not shown) [Example 93, (E)-1-(4-(4-((4-([1,2,4]triazolo[1,5-a]pyridin-7-yloxy)-3-methylphenyl)amino)pyrrolo[2,1-f][1,2,4]triazin-5-yl)azepan-1-yl)-4-(dimethylamino)but-2-en-1-one] | 200 to 500 | < 200 | 1.5 to 5 | < 200 | < 200 |
| Cc1cc(Nc2ncnn3ccc(C4CC5(C4)CN(C(=O)/C=C/CN(C)C)C5)c23)ccc1Oc1ccn2ncnc2c1 [Example 95, (E)-1-(6-(4-((4-([1,2,4]triazolo[1,5-a]pyridin-7-yloxy)-3-methylphenyl)amino)pyrrolo[2,1-f][1,2,4]triazin-5-yl)-2-azaspiro[3.3]heptan-2-yl)-4-(dimethylamino)but-2-en-1-one] | 200 to 500 | 200 to 500 | 1.5 to 5 | < 200 | 500 to 1500 |
| Cc1cc(Nc2ncnn3ccc(C4CCCN(C(=O)/C=C/CN(C)C)C4)c23)ccc1Oc1ccn2ncnc2c1 (stereo not shown) [Example 96, (E)-1-(3-(4-((4-([1,2,4]triazolo[1,5-a]pyridin-7-yloxy)-3-methylphenyl)amino)-pyrrolo-[2,1-f][1,2,4]-triazin-5-yl)piperidin-1-yl)-4-(dimethylamino)but-2-en-1-one] | 500 to 1500 | < 200 | 1.5 to 5 | < 200 | 500 to 1500 |
| Cc1cc(Nc2ncnn3ccc(C4CN(C(=O)/C=C/CN5CCC5)C4)c23)ccc1Oc1ccn2ncnc2c1 [Example 102, (E)-1-(3-(4-((4-([1,2,4]triazolo[1,5-a]pyridin-7-yloxy)-3-methylphenyl)amino)pyrrolo[2,1-f][1,2,4]triazin-5-yl)azetidin-1-yl)-4-(azetidin-1-yl)but-2-en-1-one] | 1500 to 5000 | 500 to 1500 | 1.5 to 5 | < 200 | 1500 to 5000 |
